Reference: publication PMC6920847, “2-Hydroxy-N-phenylbenzamides and Their Esters Inhibit Acetylcholinesterase and Butyrylcholinesterase” (Biomolecules, 2019)
Where “and” joins values, the source holds several entries; their conditions need not be identical. Equal entries are not always repeated. Entries after “also recorded” stand apart in the source; their conditions may differ. Where two headings read alike, the source gives them in different places.

What was measured:
[1] = target: T1, AChE from electric eel (EeAChE) (Electrophorus electricus, UniProt O42275); experiment: Inhibition of AChE, modified Ellman's spectrophotometric method; format: biochemical, electric eel (Electrophorus electricus L.)
T1 construct: Acetylcholinesterase was obtained from electric eel (Electrophorus electricus L.); purchased Sigma-Aldrich (Prague, Czech Republic); host or cells: electric eel (natural source)
T1 sequence (O42275 24-633): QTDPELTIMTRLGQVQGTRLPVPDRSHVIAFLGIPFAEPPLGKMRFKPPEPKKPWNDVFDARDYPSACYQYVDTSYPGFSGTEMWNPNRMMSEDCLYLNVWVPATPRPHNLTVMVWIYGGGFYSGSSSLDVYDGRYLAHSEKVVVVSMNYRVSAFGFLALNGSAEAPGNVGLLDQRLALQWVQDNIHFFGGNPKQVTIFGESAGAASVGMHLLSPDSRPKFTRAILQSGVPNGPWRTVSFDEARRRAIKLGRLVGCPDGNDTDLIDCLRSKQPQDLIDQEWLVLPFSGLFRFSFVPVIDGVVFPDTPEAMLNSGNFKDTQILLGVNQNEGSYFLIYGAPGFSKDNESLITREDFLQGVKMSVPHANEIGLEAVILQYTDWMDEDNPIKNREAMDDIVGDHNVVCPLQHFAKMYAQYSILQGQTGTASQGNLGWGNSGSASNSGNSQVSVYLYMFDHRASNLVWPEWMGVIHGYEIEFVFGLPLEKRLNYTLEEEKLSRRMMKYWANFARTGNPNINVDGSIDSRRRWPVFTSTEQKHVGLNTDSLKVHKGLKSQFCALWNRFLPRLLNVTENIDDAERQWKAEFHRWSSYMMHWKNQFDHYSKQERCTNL
Protocol: (§1) The IC50 values were determined using the spectrophotometric Ellman’s method modified according to Zdražilová et al., which is a simple, rapid and direct method to determine the SH and -S-S- group content in proteins. This method is widely used for the screening of the efficiency of cholinesterases inhibitors. The enzymatic activity is measured indirectly by quantifying the concentration of the 5-thio-2-nitrobenzoic acid ion formed in the reaction between the thiol reagent 5,5′-dithio-bis(2-nitrobenzoic acid) and thiocholine, a product of substrate hydrolysis (i.e., acetylthiocholine; ATCH) by cholinesterases.
(§2) The enzyme activity in final reaction mixture (2000 µL) was 0.2 U/mL, concentration of acetylthiocholine (or butyrylthiocholine, BTCH) 40 µM and concentration of 5,5′-dithio-bis(2-nitrobenzoic acid) 0.1 mM for all reactions. The tested compounds were dissolved in DMSO and then diluted in demineralized water to the concentration of 1 µM. […] All measurements were carried in triplicate and the average values of reaction rate (v0-uninhibited reaction, vi-inhibited reaction) were used for construction of the dependence v0/vi vs. concentration of inhibitor. From obtained equation of regression curve, the value of IC50 was calculated (based on the definition of IC50).
(§3) Acetylcholinesterase was obtained from electric eel (Electrophorus electricus L.) and butyrylcholinesterase was from an equine serum.
(§4) Thirty-six benzamides 1–4l were evaluated as potential inhibitors of AChE from electric eel (EeAChE) and BuChE from equine serum (EqBuChE) using Ellman’s spectrophotometric method modified according to Zdražilová et al.. Their efficacy is expressed as IC50, i.e., the concentration required for 50% inhibition of the enzymatic activity. Based on inhibition of both cholinesterases, we calculated selectivity indexes (SI) as the ratio of IC50 value for AChE/IC50 value for BuChE to express the selectivity quantitatively (Table 1).

[2] = target: T2, BuChE from equine serum (EqBuChE) (Equus caballus, UniProt P81908); experiment: Inhibition of BuChE, modified Ellman's spectrophotometric method; format: biochemical; conditions: for Enhancement of BuChE inhibition compared to parent 3k: ratio of IC50 values vs parent 3k
T2 construct: butyrylcholinesterase was from an equine serum; purchased Sigma-Aldrich (Prague, Czech Republic); host or cells: equine serum (natural source)
T2 sequence (P81908 whole entry): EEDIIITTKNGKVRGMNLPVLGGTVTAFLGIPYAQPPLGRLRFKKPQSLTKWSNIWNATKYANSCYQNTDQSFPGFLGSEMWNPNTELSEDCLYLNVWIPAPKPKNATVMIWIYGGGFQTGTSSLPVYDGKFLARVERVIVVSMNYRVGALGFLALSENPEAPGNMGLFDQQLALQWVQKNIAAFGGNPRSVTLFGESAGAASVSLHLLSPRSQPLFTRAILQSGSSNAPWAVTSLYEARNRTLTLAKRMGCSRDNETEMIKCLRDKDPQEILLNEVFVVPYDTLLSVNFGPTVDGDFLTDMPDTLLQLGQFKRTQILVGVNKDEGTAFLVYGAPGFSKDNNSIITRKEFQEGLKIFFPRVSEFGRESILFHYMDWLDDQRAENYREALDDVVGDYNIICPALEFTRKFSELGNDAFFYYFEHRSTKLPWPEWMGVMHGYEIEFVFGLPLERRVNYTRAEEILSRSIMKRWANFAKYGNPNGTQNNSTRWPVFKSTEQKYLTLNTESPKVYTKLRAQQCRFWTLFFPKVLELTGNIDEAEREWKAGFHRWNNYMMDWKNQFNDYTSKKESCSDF
Protocol: as §1, §2, §3, §4

acetylcholinesterase = target: T3, acetylcholinesterase (Electrophorus electricus, UniProt O42275); experiment: Mechanism of inhibition, dependence log% A vs. time; format: biochemical, electric eel (Electrophorus electricus L.); conditions: inhibitor 10, 30, 90 µM; prolonged incubation
T3 construct: Acetylcholinesterase was obtained from electric eel (Electrophorus electricus L.); purchased Sigma-Aldrich (Prague, Czech Republic); host or cells: electric eel (natural source)
T3 sequence (O42275 24-633): as the sequence (O42275 24-633) above
Protocol: (§5) The determination of mechanism of enzyme inhibition was described in detail previously. The inhibitor 5c was evaluated at three different concentrations for each enzyme.
(§6) Based on the changes of enzyme activity in the presence of tested inhibitor during prolonged incubation, it is possible to distinguish reversible, pseudo-irreversible and irreversible inhibition. In the case of reversible inhibition, the inhibitor is bound to the enzyme for a short period of time, the activity of the enzyme goes down immediately and, after dissociation of complex enzyme-inhibitor, the enzyme activity is restored. […] For irreversible inhibition, covalent and permanent bond between enzyme and inhibitor is typical and therefore the enzyme becomes inactivated. Irreversible inhibitor decreases enzyme activity successively and the dependence log% A vs. time in the presence of inhibitor is linear.
(§7) The procedure of measurement and data evaluation were in detail described previously in the reference. From the dependence log% A vs. time the mechanism of action of tested inhibitor can be deduced.
Figure 1 The dependence log% A vs. time. Enzyme: acetylcholinesterase, derivative 5c, concentration of inhibitor: 10 µM (rhomb), 30 µM (square), 90 µM (triangle).

butyrylcholinesterase = target: T4, butyrylcholinesterase (Equus caballus, UniProt P81908); experiment: as above; format: biochemical, equine; conditions: inhibitor 3, 6, 9 µM; prolonged incubation
T4 construct: butyrylcholinesterase was from an equine serum; purchased Sigma-Aldrich (Prague, Czech Republic); host or cells: equine serum (natural source)
T4 sequence (P81908 whole entry): as the sequence (P81908 whole entry) above
Protocol: as §5, §6, §7
Figure 2 The dependence log% A vs. time. Enzyme: butyrylcholinesterase, derivative 5c, concentration of inhibitor: 3 µM (rhomb), 6 µM (square), 9 µM (triangle).

AChE = target: T5, AChE (Electrophorus electricus, UniProt O42275); experiment: Type of inhibition, Lineweaver-Burk plot; format: biochemical, electric eel (Electrophorus electricus L.); conditions: ATCH 20–80 µM
T5 construct: Acetylcholinesterase was obtained from electric eel (Electrophorus electricus L.); purchased Sigma-Aldrich (Prague, Czech Republic); host or cells: electric eel (natural source)
T5 sequence (O42275 24-633): as the sequence (O42275 24-633) above
Protocol: (§8) For the determination of the type of inhibition Lineweaver-Burk plot was used and the measuring procedure was similar to that for the determination of IC50 (modified Ellman’s method was used). The enzyme activity in the final reaction mixture (2000 µL) was 0.2 U/mL, a concentration of ATCH or BTCH 20–80 µM and a concentration of 5,5′-dithio-bis(2-nitrobenzoic acid) 0.1 mM. For each of the substrate concentrations, four different concentrations of inhibitor were chosen. The dependence absorbance vs. time was observed and the reaction rate was calculated. All measurements were carried in duplicate and the average values of reaction rate were used for the construction of the Lineweaver-Burk plot. From obtained equations of regression curves, the values of KM (Michaelis constant) and Vm (maximum velocity) were calculated and the type of inhibition was evaluated.
(§9) The type of inhibition could be distinguished based on the Lineweaver-Burk plot and the comparison of the kinetic parameters KM and Vm of uninhibited and inhibited reactions. The diagnostic criterion for competitive inhibition is that Vm is unaffected by inhibitor and KM for inhibited reaction is increased. All lines in Lineweaver-Burk plot share a common y-intercept. For non-competitive inhibitor KM is unchanged, but Vm of inhibited reaction is decreased. All lines in Lineweaver-Burk plot share a common x-intercept. […]

BuChE = target: T6, BuChE (Equus caballus, UniProt P81908); experiment: Type of inhibition, Lineweaver-Burk plot; format: biochemical, equine; conditions: BTCH 20–80 µM
T6 construct: butyrylcholinesterase was from an equine serum; purchased Sigma-Aldrich (Prague, Czech Republic); host or cells: equine serum (natural source)
T6 sequence (P81908 whole entry): as the sequence (P81908 whole entry) above
Protocol: as §8, §9

[3] = target: T1, AChE from electric eel (EeAChE); conditions: SI = IC50 for AChE/IC50 for BuChE; cited from earlier work
[4] = target: T2, BuChE from equine serum (EqBuChE); conditions: mean ± SD; cited from earlier work

CCOP(OCC)Oc1cc(Cl)ccc1C(=O)Nc1ccc(C(F)(F)F)cc1 [Compound 5c, 5-Chloro-2-{[4-(trifluoromethyl)phenyl]carbamoyl}phenyl diethyl phosphite]
Selectivity AChE/BuChE ([1]; SI = IC50 for AChE/IC50 for BuChE, SI lower than 1 means selectivity for AChE): 28.00 | IC50 ([1]; mean ± SD, n = three experiments, read-out: IC50 (EeAChE)): 66.4 ± 1.14 µM | IC50 ([2]; mean ± SD, n = three experiments, read-out: IC50 (EqBuChE)): 2400 nM and 2370 nM | Improvement of activity against BuChE compared to phosphate 5a ([2]; phosphite 5c vs phosphate 5a): 4.2 times | Enhancement of BuChE inhibition compared to parent 3k [2]: 84.2 times | Mechanism of inhibition (AChE) (acetylcholinesterase): pseudo-irreversible inhibitor; also recorded: pseudo-irreversible inhibition | Mechanism of inhibition (BuChE) (butyrylcholinesterase): pseudo-irreversible inhibitor; also recorded: pseudo-irreversible inhibition | Type of inhibition (AChE) (AChE): mixed inhibition; also recorded: mixed inhibitory mechanism | Type of inhibition (BuChE) (BuChE): mixed inhibition; also recorded: mixed inhibitory mechanism

CCOP(=O)(OCC)Oc1cc(Cl)ccc1C(=O)Nc1ccc(C(F)(F)F)cc1 [Compound 5a]
Selectivity AChE/BuChE [3]: 8.77 | Enhancement of BuChE inhibition compared to parent 3k [2]: up to 20.3 times | IC50 [4]: 9.84 ± 0.06 µM
